Test results: ChEMBL document CHEMBL5543145, “Discovery of the First-in-Class G9a/GLP PROTAC Degrader” (J Med Chem, 2024)
The source made the active and inactive calls. The calls are words filed in the database; no cut-off is given here.

Legend:
[1] = target: T1, von Hippel-Lindau disease tumor suppressor/Histone-lysine N-methyltransferase EHMT1 (Homo sapiens, UniProt Q9H9B1+P40337); experiment: PROTAC activity at GLP/VHL in human 22Rv1 cells assessed as induction of GLP degradation at 3 uM by Western blot analysis; type: cell-based; conditions: time <= 48.0 hrs, TDE = time-dependent effect
Target sequence in this assay (P40337 whole entry partner): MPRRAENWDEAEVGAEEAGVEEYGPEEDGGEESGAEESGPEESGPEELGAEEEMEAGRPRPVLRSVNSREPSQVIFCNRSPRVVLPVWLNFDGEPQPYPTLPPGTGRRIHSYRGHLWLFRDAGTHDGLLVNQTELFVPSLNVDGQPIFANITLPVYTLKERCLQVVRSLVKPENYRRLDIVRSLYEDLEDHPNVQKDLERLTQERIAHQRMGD
Target sequence in this assay (Q9H9B1 2-1298 limits assumed): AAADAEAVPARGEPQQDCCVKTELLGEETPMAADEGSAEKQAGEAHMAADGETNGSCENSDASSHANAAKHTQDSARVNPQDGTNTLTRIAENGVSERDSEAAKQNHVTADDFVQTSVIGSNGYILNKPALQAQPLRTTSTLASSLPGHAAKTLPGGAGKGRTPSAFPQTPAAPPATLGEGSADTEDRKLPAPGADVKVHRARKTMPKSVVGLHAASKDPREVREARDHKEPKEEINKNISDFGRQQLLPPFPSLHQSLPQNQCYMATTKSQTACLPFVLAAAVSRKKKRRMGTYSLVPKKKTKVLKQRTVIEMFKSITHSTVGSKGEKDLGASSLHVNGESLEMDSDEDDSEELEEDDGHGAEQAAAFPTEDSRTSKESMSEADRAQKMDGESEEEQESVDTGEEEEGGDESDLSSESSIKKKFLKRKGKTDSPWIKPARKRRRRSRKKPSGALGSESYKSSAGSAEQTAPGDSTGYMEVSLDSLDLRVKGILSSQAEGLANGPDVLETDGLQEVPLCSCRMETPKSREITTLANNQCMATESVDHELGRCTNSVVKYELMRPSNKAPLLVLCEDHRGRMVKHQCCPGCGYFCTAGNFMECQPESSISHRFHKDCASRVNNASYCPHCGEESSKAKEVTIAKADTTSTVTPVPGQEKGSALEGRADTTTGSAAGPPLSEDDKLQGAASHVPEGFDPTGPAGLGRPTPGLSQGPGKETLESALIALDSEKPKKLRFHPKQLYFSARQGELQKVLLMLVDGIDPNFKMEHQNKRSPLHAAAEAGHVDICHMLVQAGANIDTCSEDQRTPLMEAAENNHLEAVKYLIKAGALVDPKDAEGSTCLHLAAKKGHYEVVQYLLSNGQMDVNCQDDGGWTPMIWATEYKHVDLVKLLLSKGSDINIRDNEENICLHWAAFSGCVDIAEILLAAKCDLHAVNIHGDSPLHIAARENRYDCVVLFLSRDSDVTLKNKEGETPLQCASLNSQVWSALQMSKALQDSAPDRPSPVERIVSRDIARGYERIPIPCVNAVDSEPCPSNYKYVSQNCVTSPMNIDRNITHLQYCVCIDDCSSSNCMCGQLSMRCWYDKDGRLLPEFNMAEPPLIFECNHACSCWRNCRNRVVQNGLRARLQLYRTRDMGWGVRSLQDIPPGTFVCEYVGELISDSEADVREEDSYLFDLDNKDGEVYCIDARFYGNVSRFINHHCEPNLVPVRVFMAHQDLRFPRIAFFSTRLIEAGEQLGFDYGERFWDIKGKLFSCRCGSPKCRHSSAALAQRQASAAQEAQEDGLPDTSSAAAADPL

K562 = experiment: Cytotoxicity against human K562 cells assessed as reduction in cell viability incubated for 8 days; type: functional, cell-based; conditions: K562, 192 h
[2] = target: T2, von Hippel-Lindau disease tumor suppressor/Histone-lysine N-methyltransferase EHMT2 (Homo sapiens, UniProt Q96KQ7+P40337); experiment: PROTAC activity at G9a/VHL in human 22Rv1 cells assessed as induction of G9a degradation at 0.3 uM incubated for 24 hrs by Western blot analysis relative to control; type: cell-based
T2 sequence (P40337 whole entry partner): as the sequence (P40337 whole entry partner) above
T2 sequence (Q96KQ7 2-1210 limits assumed): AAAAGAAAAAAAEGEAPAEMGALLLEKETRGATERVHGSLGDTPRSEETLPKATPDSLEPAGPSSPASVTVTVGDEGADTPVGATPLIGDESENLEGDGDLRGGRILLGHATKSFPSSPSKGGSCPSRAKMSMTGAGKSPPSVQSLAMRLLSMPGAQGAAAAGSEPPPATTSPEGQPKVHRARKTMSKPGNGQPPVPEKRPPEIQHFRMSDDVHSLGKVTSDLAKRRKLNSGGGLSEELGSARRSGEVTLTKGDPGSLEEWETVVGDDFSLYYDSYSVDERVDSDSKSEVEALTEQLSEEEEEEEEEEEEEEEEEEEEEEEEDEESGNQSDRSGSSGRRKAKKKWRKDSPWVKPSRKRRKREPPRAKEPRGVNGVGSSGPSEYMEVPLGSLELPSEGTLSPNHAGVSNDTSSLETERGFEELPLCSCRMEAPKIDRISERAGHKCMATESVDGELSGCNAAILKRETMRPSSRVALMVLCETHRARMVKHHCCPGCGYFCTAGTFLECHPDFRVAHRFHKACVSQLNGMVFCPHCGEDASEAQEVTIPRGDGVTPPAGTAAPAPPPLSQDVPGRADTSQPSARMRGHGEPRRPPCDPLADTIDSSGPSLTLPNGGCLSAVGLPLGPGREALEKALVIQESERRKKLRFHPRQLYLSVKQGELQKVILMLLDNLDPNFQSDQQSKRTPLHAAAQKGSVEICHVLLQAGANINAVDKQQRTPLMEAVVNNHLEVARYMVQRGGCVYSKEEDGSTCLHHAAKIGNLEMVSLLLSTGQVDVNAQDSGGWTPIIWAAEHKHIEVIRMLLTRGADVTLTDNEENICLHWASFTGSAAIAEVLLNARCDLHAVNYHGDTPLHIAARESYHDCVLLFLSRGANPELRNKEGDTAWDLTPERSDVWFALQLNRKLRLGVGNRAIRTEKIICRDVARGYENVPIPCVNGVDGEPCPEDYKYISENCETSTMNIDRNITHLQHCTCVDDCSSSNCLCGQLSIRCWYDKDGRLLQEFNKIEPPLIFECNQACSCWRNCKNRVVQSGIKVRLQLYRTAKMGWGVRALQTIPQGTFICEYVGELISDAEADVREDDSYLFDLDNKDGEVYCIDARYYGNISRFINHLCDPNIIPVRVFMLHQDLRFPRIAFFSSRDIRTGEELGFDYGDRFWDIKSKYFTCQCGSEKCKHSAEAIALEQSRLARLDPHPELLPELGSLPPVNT

[3] = target: Histone-lysine N-methyltransferase SMYD3 (Homo sapiens) (UniProt Q9H7B4); experiment: Inhibition of SMYD3 (unknown origin) at 10 uM relative to control
Sequence of Histone-lysine N-methyltransferase SMYD3 (Homo sapiens) (Q9H7B4 whole entry): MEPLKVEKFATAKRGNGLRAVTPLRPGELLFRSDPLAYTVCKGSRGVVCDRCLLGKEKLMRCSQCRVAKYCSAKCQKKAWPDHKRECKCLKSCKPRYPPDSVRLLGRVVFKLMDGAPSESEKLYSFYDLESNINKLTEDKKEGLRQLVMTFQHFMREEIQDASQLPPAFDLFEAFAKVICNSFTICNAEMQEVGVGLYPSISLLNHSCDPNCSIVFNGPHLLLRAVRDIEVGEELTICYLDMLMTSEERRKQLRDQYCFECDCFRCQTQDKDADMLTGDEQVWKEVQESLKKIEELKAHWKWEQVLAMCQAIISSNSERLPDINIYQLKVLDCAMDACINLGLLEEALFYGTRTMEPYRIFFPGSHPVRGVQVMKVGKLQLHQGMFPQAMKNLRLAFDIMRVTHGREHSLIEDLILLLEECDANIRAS

[4] = target: T1, von Hippel-Lindau disease tumor suppressor/Histone-lysine N-methyltransferase EHMT1; experiment: PROTAC activity at GLP/VHL in human 22Rv1 cells assessed as induction of GLP degradation incubated for 24 hrs by Western blot analysis; type: cell-based
Homo sapiens = species on record: Homo sapiens; experiment: Inhibition of SET6 (unknown origin) at 10 uM relative to control
[5] = target: T1, von Hippel-Lindau disease tumor suppressor/Histone-lysine N-methyltransferase EHMT1; experiment: PROTAC activity at GLP/VHL in human 22Rv1 cells assessed as induction of GLP degradation at 3 uM measured at 4 hrs by Western blot analysis; type: cell-based
Target sequence in this assay (P40337 whole entry partner): as the sequence (P40337 whole entry partner) above
Target sequence in this assay (Q9H9B1 2-1298 limits assumed): as the sequence (Q9H9B1 2-1298 limits assumed) above

[6] = target: T1, von Hippel-Lindau disease tumor suppressor/Histone-lysine N-methyltransferase EHMT1; experiment: PROTAC activity at GLP/VHL in human 22Rv1 cells assessed as induction of GLP degradation at 1 uM pretreated with VHL-1 for 2 hrs followed by compound administration and measured after 24 hrs by Western blot analysis; type: cell-based
Target sequence in this assay (P40337 whole entry partner): as the sequence (P40337 whole entry partner) above
Target sequence in this assay (Q9H9B1 2-1298 limits assumed): as the sequence (Q9H9B1 2-1298 limits assumed) above

[7] = target: Histone-lysine N-methyltransferase SUV39H1 (Homo sapiens) (UniProt O43463); experiment: Inhibition of SUV39H1 (unknown origin) at 10 uM relative to control
Sequence of Histone-lysine N-methyltransferase SUV39H1 (Homo sapiens) (O43463 whole entry): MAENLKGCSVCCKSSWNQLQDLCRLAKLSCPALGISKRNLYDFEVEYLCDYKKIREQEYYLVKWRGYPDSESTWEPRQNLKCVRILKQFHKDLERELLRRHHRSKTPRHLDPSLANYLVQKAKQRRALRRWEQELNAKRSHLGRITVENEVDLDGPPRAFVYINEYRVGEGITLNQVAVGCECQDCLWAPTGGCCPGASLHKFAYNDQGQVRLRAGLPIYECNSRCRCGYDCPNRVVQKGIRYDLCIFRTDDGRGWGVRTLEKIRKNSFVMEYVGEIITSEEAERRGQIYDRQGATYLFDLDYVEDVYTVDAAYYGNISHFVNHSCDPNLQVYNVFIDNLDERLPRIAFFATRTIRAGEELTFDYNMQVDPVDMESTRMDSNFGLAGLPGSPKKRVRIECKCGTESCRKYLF

[8] = target: T2, von Hippel-Lindau disease tumor suppressor/Histone-lysine N-methyltransferase EHMT2; experiment: PROTAC activity at G9a/VHL in human K562 cells assessed as induction of G9a degradation at 3 uM incubated for 24 hrs by Western blot analysis; type: cell-based
[9] = target: Histone-lysine N-methyltransferase NSD2 (Homo sapiens) (UniProt O96028); experiment: Inhibition of NSD2 (unknown origin) at 10 uM relative to control
[10] = target: Protein arginine N-methyltransferase 1 (Homo sapiens) (UniProt Q99873); experiment: Inhibition of PRMT1 (unknown origin) at 10 uM relative to control
Sequence of Protein arginine N-methyltransferase 1 (Homo sapiens) (Q99873 whole entry, looked up): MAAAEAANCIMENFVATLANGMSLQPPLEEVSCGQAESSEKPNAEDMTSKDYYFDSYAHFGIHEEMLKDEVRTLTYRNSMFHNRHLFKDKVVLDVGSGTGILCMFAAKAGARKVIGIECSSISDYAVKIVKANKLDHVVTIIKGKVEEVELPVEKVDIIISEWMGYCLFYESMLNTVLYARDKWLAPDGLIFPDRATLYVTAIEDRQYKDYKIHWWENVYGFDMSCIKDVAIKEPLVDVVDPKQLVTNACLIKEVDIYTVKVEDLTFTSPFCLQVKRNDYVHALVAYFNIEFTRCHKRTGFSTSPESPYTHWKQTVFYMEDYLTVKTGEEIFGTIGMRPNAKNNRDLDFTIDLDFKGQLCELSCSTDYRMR

[11] = target: Histone-lysine N-methyltransferase SETD2 (Homo sapiens) (UniProt Q9BYW2); experiment: Inhibition of SETD2 (unknown origin) at 10 uM relative to control
[12] = target: T2, von Hippel-Lindau disease tumor suppressor/Histone-lysine N-methyltransferase EHMT2; experiment: PROTAC activity at G9a/VHL in human 22Rv1 cells assessed as induction of G9a degradation at 3 uM measured at 24 to 48 hrs by Western blot analysis; type: cell-based; conditions: time 24-48 hrs
[13] = target: T2, von Hippel-Lindau disease tumor suppressor/Histone-lysine N-methyltransferase EHMT2; experiment: PROTAC activity at G9a/VHL in human 22Rv1 cells assessed as effect on G9a level at 3 uM incubated for 24 hrs by RT-qPCR analysis; type: cell-based
CWR22R = experiment: Cytotoxicity against human 22Rv1 cells assessed as growth inhibition measured for 7 days; type: functional; conditions: 22Rv1, 168 h, time 7 day
[14] = target: Histone-lysine N-methyltransferase, H3 lysine-36 specific (Homo sapiens) (UniProt Q96L73); experiment: Inhibition of NSD1 (unknown origin) at 10 uM relative to control
[15] = target: T2, von Hippel-Lindau disease tumor suppressor/Histone-lysine N-methyltransferase EHMT2; experiment: PROTAC activity at G9a/VHL in human 22Rv1 cells assessed as induction of G9a degradation at 3 uM by Western blot analysis; type: cell-based; conditions: time <= 48.0 hrs, TDE = time-dependent effect
[16] = target: Histone-arginine methyltransferase CARM1 (Homo sapiens) (UniProt Q86X55); experiment: Inhibition of PRMT4 (unknown origin) at 10 uM relative to control
Sequence of Histone-arginine methyltransferase CARM1 (Homo sapiens) (Q86X55 whole entry): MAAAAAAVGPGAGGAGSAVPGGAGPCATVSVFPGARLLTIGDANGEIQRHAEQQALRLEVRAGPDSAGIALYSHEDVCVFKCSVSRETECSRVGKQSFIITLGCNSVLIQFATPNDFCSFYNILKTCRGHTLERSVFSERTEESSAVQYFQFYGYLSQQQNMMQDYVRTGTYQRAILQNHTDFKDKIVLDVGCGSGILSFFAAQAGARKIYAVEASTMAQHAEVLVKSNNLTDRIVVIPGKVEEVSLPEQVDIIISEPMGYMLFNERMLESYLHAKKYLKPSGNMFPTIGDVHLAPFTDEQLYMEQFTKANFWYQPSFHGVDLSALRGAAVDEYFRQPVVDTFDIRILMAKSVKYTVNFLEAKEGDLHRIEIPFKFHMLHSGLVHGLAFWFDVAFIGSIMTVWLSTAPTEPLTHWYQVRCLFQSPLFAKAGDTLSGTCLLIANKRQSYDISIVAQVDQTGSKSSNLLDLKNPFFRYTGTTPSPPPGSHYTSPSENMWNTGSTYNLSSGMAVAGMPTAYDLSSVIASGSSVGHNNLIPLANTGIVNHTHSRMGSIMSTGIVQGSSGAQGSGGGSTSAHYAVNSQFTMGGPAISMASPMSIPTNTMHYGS

## COc1cc2c(NC3CCN(CCCC(=O)NCCCCCCCCCCCC(=O)N[C@H](C(=O)N4C[C@H](O)C[C@H]4C(=O)NCc4ccc(-c5scnc5C)cc4)C(C)(C)C)CC3)nc(N3CCC(F)(F)CC3)nc2cc1OCCCN1CCCC1
[1]
  Activity: Tde
K562
  IC50: 2000 nM
[2]
  Emax: 73%
[3]
  inhibition: > 50%
[4]
  DC50: 260 nM
Homo sapiens
  inhibition: > 50%
[5]
  Activity: Active
[6]
  Activity: Active
[7]
  inhibition: > 50%
[8]
  Activity: Active
[9]
  inhibition: > 50%
[10]
  inhibition: > 50%
[11]
  inhibition: > 50%
[12]
  Activity: 100%
[13]
  Activity: Active
CWR22R
  GI50: 4100 nM
[14]
  inhibition: > 50%
[15]
  Activity: Tde
[16]
  inhibition: > 50%
